We go through 3 compounds from US11377444B2, “Pyridopyrimidine compounds acting as mTORC 1/2 dual inhibitors” (MEDSHINE DISCOVERY INC., priority 2017, dated 2022).

The Kd is the equilibrium constant for the complex coming apart. Low values mean higher affinity, high ones lower affinity. As a reminder, the IC50 is the concentration needed to halve the response being measured. Read a low IC50 as greater potency. In general, AUC(0-inf) refers to total exposure, with the tail of the curve extrapolated. Low values mean low exposure, high ones high exposure. As usually defined, the AUC(0-t) is exposure summed from dosing to a finite time, without extrapolation to infinity. High values mean high exposure, low ones low exposure. One may read the half-life as how long it takes for the measured level to halve. High values mean slow loss, low ones fast loss. By Cmax is commonly meant the maximum level reached in the sampled fluid or tissue. As usually defined, the Tmax is the time from dosing to the highest level. One may read the bioavailability as dose-corrected exposure relative to a reference, in per cent. For orientation: T/C means the result in the treated group divided by that in the control group, in per cent. In general, TGI refers to the reduction of tumour growth relative to the control group. A lower TGI goes with a weaker effect on the tumour.

Read-outs that look alike come from different tables or passages of the source.

The target of data set [1] is T1, mTOR kinase (mTORC1 and mTORC2 kinase complex) (Homo sapiens, UniProt P42345).
T1 construct: purchased DiscoverX; host or cells: HEK-293
The data set is described as follows: In vitro evaluation of mTOR kinase inhibitory activity (DiscoverX ligand-bead competition binding, qPCR readout). In a few lines:
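Tagged mTOR expressed in HEK-293 cells was combined with streptavidin beads carrying biotinylated ligand and DMSO-dissolved compound, shaken 1 h at room temperature. Beads were washed, then eluted 30 min with […] non-biotin affinity ligand. Kinase in eluate quantified by qPCR.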
(In general: In qPCR the cycle at which signal appears reflects the starting amount.)

For the next data set, the system named is MCF-7 cell. Kind of data set: Cell proliferation inhibitory activity (Cell-Titer-Glo), MCF-7. The class given is cell-based. Conditions: Homo sapiens, MCF7, 72 h; 3 days incubation. The text has this:
(§1) Experimental Embodiment 2: Evaluation of Cell Proliferation Inhibitory Activity
(§2) Experiment objective: To detect cell proliferation inhibitory activity of the tested compounds.
(§3) Experimental principle: The luciferase in the Cell-Titer-Glo reagent produces oxyluciferin using luciferin, oxygen and ATP as reaction substrates, and releases energy in the form of light. Since the reaction of luciferase requires ATP, the total amount of light generated by the reaction is proportional to the total amount of ATP that reflects cell viability.
(§4) Cell lines: MCF-7 cell line […], HT-29 cell line (ATCC-HTB-38), OE21 (ECACC-96062201), NCI-N87 cell line (ATCC-CRL-5822)
(§5) Cell culture medium: (RPMI 1640 culture medium (Invitrogen #1868546; 10% serum Invitrogen #1804958; L-glutamine 1×, Invitrogen #1830863; dual antibiotic Hyclone #J170012))
(§6) Cell Titer-Glo® Luminescent Cell Viability Assay Kit (Promega #G7573)
(§7) The cells were inoculated in a 384- or 96-well plate with a density of 1000 cells per well and 25 μL per well according to the instructions of the cell inoculating plate. The edge wells were not inoculated with cells, and was supplemented with […].
(§8) (i) The mother solution of the compound was 10 mM, and diluted with DMSO to an initial concentration of 4 mM. The compound was added to the compound mother solution, 9 μL per well.
(§9) (ii) The compound was diluted with ECHO liquid-handling workstation. Each well of the cell plate was added with 125 nL compound. Each well of the cell wells in 2nd column and 23rd column was added with 125 nL DMSO, and each of the PBS wells in 1st column and 24th column was added with 125 nL DMSO.
(§10) (iii) Each well of the cell plate was supplemented with 25 μL culture medium, the final volume in each well of the cell plate was 50 μL, […] 3 times dilution, 10 concentrations, each concentration was duplicated in left and right wells, the final DMSO concentration was 0.25%.
(§11) 2.3. After addition of the compound, centrifugation was performed at 1000 rpm for 1 min, and the cell plate was placed in a 37° C., 5% CO2 incubator for 3 days.
(§12) The cell plate was taken out from the incubator and equilibrated at room temperature for 30 minutes. 25 μL Cell-Titer-Glo reagent was added to each well, shaken for one minute to mix thoroughly, centrifuged at 1000 rpm for 1 minute. After 10 minutes, the plate was read on PerkinElmer Envision with a […] reading time was set at 0.2 second.

In the next data set the test system is HT-29 cell. Kind of data set: Cell proliferation inhibitory activity (Cell-Titer-Glo), HT-29. The class given is cell-based. The conditions noted are these: Homo sapiens, HT-29, 72 h, 3 days incubation.
Description: as §1, §2, §3, §4, §5, §6, §7, §8, §9, §10, §11, §12

The test system of the next data set is OE21 cell. The data set is described as follows: Cell proliferation inhibitory activity (Cell-Titer-Glo), OE21. Conditions: OE21, 72 h; 3 days incubation. Type of data set: cell-based.
Description: as §1, §2, §3, §4, §5, §6, §7, §8, §9, §10, §11, §12

The test system of a further data set is N87 cell. Kind of data set: Cell proliferation inhibitory activity (Cell-Titer-Glo), N87. The class given is cell-based. The conditions noted are these: 72 h; 3 days incubation.
Description: as §1, §2, §3, §4, §5, §6, §7, §8, §9, §10, §11, §12

Data set [2] in a line: Pharmacokinetic evaluation in plasma after IV and PO administration. Type of data set: in vivo. Conditions: female Balb/c mice; for MRT inf: read-out: MRT0-inf; for MRT last: read-out: MRT0-last. How it is done:
Experimental Embodiment 3: Pharmacokinetic Evaluation
The test compound was mixed with […] (Cremophor EL), vortexed and sonicated to prepare a 1 mg/mL near-clear solution, which was filtered with a microporous filter membrane for future use. Female Balb/c mice of 18 to 20 grams were selected and the solution of the test compound was administered intravenously at a dose of 1 or 2 mg/kg. The test compound was mixed with an aqueous solution of 1% Tween 80, 9% polyethylene glycol 400, and 90% water, vortexed and sonicated to prepare 1 mg/mL near-clear solution, which was filtered with a microporous filter membrane for future use.
Female Balb/c mice of 18 to 20 grams were selected, and the solution of the test compound was orally administered at a dose of 2 or 10 mg/kg. The whole blood was collected at a certain time, and prepared into plasma. The drug concentration was analyzed by LC-MS/MS, and the pharmacokinetic parameters were calculated using Phoenix WinNonlin software (Pharsight Corporation, USA).

In data set [3] the test system is human breast cancer MCF-7 cell subcutaneous xenograft tumor. The data set is described as follows: In vivo pharmacodynamic study, MCF-7 subcutaneous xenograft tumor. Also on record: species or system BALB/c nude mouse. Conditions: 15 mg/kg. The text has this:
Experimental Embodiment 4: In Vivo Pharmacodynamic Study on BALB/c Nude Mouse Model of Human Breast Cancer MCF-7 Cell Subcutaneous Xenograft Tumor
Experimental objective: To study the efficacy of the test compounds on human breast cancer MCF-7 cell subcutaneous xenograft tumor in BALB/c nude mouse model.
Experimental animals: Female BALB/c nude mice, 6-8 weeks old, weighing 18-22 grams; supplier: Shanghai Xipuer-Bikai Experimental Animal Co., Ltd.
Human breast cancer MCF-7 cells (ECACC, article number: 86012803) were subjected to in vitro monolayer culture under the conditions of EMEM (EBSS)+2 mM […]+1% Non Essential Amino Acids (NEAA) medium containing 10% fetal bovine serum, 100 U/mL penicillin and 100 μg/mL streptomycin, and 37° C., 5% CO2incubator. Conventional digestion treatment was carried out with trypsin-EDTA twice a week for cell passage. When the cell saturation was 80%-90%, and the quantity reached the requirement, the cells were collected, counted and inoculated.
Estrogen tablets (0.18 mg) were inoculated into the left back of each mouse three days before cell inoculation, 0.2 mL (1×10^7) MCF-7 cells (added with matrigel, volume ratio of 1:1) were subcutaneously inoculated into the right back of each mouse. When the average volume of tumor reached 142 mm^3, the mice were divided into groups and began to be administrated.
The test compounds were prepared into clear solutions of 0.75 mg/mL, 1.5 mg/mL and 3 mg/mL. The vehicles were 5% DMSO+30% polyethylene glycol 300+65% water.
The experimental indexes were used for investigating whether the growth of the tumors had been inhibited, delayed or cured. The diameters of the tumors were measured with vernier calipers twice a week. The calculation formula of the tumor volume was: V=0.5a×b^2, wherein a and b represent the long and short diameters of the tumor respectively.
The antitumor efficacy of the compound was evaluated by TGI (%) or relative tumor proliferation rate T/C (%). TGI (%) reflects the inhibition rate of the tumor growth. Calculation of TGI (%): TGI (%)=[1−(average tumor volume at the end of administration in the treatment group−average tumor volume at the beginning of administration in the treatment group)/(average tumor volume at the end of treatment in the vehicle control group−average tumor volume at the beginning of treatment in the vehicle control group)]×[…].
Relative tumor proliferation rate T/C (%): The calculation formula was as follows: T/C %=TRTV/CRTV at the beginning of the treatment (TRTV: treatment group RTV; CRTV: negative control group RTV). The relative tumor volume (RTV) was calculated according to the results of tumor measurement. The calculation formula was RTV=Vt/V0, wherein V0 is the average tumor volume measured during administration of the groups (i.e. d0), and Vt is the average tumor volume during a certain measurement, the TRTV and CRTV were taken on the same day.
Statistical analysis included the mean and standard error (SEM) of tumor volume at each time point in each group. […] The comparison between two groups was analyzed by T-test, and the comparison between three or more groups was analyzed by one-way ANOVA.

Compound `CNC(=O)c1cccc(-c2ccc3c(N4CCOC[C@@H]4C)nc(N4CCOC5(CC5)C4)nc3n2)c1` [Embodiment 1] showed a Kd in data set [1] of 0.85 nM. The IC50 in the data set with MCF-7 cell is 155 nM. In addition, in the data set with HT-29 cell, 485 nM corresponded to half-maximal inhibition (IC50). The same compound showed a half-inhibitory concentration (IC50) in the data set on OE21 cell of 313 nM. In the data set with N87 cell, this compound came in with a half-maximal inhibitory concentration (IC50) of 61 nM. Further, in data set [2] (IV 2 mg/kg), the AUCExtra is 0.124%, the AUMCExtra amounted to 1.27% and the Tlast was 12 h. Further, in data set [2] (PO 10 mg/kg), the AUCExtra came to 0.174%, the AUMCExtra amounted to 1.83% and the Tlast came to 24.0 h. Also, in data set [2] (mouse, IV 2 mg/kg), the AUC(0-inf) is 7.42 µM·h, the AUC(0-t) is 7.41 µM·h, the C0 amounted to 7.2 µM and the clearance is 9.45 mL/min/kg. In addition, in data set [2] (mouse, IV 2 mg/kg), the half-life is 1.65 h, the MRT inf worked out at 1.38 h and the MRT last was found to be 1.2 h. The Vd in data set [2] (mouse, IV 2 mg/kg, read-out: Vdss) came out at 0.793 L/kg. In data set [2] (mouse, PO 10 mg/kg), the area under the curve AUC(0-inf) is 35 µM·h, the AUC(0-t) was found to be 35 µM·h, the Cmax came out at 15.1 µM and the time to peak (Tmax) stood at 0.25 h. In addition, in data set [2] (mouse, PO 10 mg/kg), the bioavailability worked out at 94.4%, the half-life is 3.33 h, the MRT inf is 2.74 h and the MRT last stood at 2.69 h.
In data set [1], `CNC(=O)c1cccc(-c2ccc3c(N4CCOC[C@@H]4C)nc(N4CC5(CCC5)OC[C@@H]4C)nc3n2)c1` [Embodiment 30] yielded a Kd of 0.44 nM. Also, the figures for the 50% inhibitory concentration (IC50) with HT-29 cell and with OE21 cell were 442 nM and 158 nM, respectively.
Take `C[C@H]1COCCN1c1nc(N2CCOC3(CCC3)C2)nc2nc(-c3cccc(C(N)=O)c3)ccc12` [Embodiment 44]: in data set [1], the Kd amounted to 0.24 nM. The same compound displayed an IC50 with MCF-7 cell of 171 nM. The concentration for half-maximal inhibition (IC50) with N87 cell was 89 nM. For the same compound, in data set [3], the T/C is listed as 50.58% and the inhibition of tumour growth (TGI) was determined as 65.23%. In addition, the “RTV (27th day)” value in data set [3] (27th day) worked out at 2.11 ± 0.39. Besides, the “Tumor volume (27th day)” value in data set [3] (27th day, mean ± SEM) came to 298 ± 55 mm^3. In addition, in data set [3] (day 0, mean ± SEM), the “Tumor volume (day 0)” value was 143 ± 13 mm^3.
